Results as given in patent US20210169690A1, “Self-Retaining Implantable Drug Delivery Device” (GoldenBiotech, LLC, priority 2019, published 2021).

Test: Visual examination of physical appearance and mixing of drug-loaded silicone polymer matrix test samples
Type: physicochemical
Conditions: 15% and 20% Travoprost test samples
Source text: To test the loading capacity of a silicone elastomer polymer matrix for a prostaglandin analogue, polymer matrix with different amounts and types of a prostaglandin analogue were made and the physical and mechanical properties of the resulting polymerized drug-loaded matrix were characterized (Tables 1-3). These polymer matrix test samples were made by mixing together a prostaglandin analogue, a liquid cyclic vinyl siloxane elastomer, a crosslinker, and a catalyst using a high-speed mixer and then heated the capped container at 70° C. for 24 hours to cure the mixture. A filler, such as a fumed silica, was also used to provide sufficient mechanical strength to the polymerized matrix. In addition, an inhibitor was used to slow the crosslinking reaction to a workable rate. The resulting thin-disc-shaped drug-loaded polymer matrix was allowed to cool to room temperature and then placed in 4° C. for 24 hours to increase stiffness of the material. The physical appearance of each drug-loaded polymer matrix test sample was examined visually and its mechanical properties analyzed using a durometer.

## CC(C)OC(=O)CCC/C=C\C[C@@H]1[C@@H](/C=C/[C@@H](O)COc2cccc(C(F)(F)F)c2)[C@H](O)C[C@@H]1O [Travoprost]
  physical examination of test samples: exhibited more elasticity but had surfaces with tacky attributes and a consistency that was not fully homogeneous
